Columns and labels:
[1] = test system: arachidonic acid-induced ear swelling; assay: Topical arachidonic acid-induced ear swelling model in mice (topical application); assay type: in vivo, mice (male ICR); settings: 20 μL applied 30 min before and 15 min after arachidonic acid, measured at 90 minutes
Description: The test compounds, indomethacin (positive control), and vehicle were evaluated for anti-inflammatory activity in a topical arachidonic acid-induced ear swelling model in mice. Male ICR mice weighing 22±2 g were used and randomly divided. Arachidonic Acid (0.5 mg in 20 μl of acetone:ethanol/1:1) was applied topically to the anterior and posterior surfaces of the right ear of each mice. Test compounds and vehicle, as listed in Table 1 were similarly applied 30 minutes before and 15 minutes after arachidonic acid application. The thickness of the right ear and the left ear was measured and the difference calculated as an indication of the inflammation in the right ear. Ear swelling was measured by a Dyer model micrometer gauge at 60 and 90 minutes after arachidonic acid application as an index of inflammation. Percent inhibition was calculated according to the formula: Ic−It/Ic×100, where Ic and It refers to increase of ear thickness (mm) in control and treated mice, respectively. ANOVA and Dunnett's test were employed to ascertain significant difference between vehicle control and treated groups. Significance is set at P<0.05 level. The test compounds, indomethacin (positive control), and vehicle were evaluated for anti-inflammatory activity in a topical arachidonic acid-induced ear swelling model in mice. Male ICR mice weighing 22±2 g were used and randomly divided; the test compound and vehicle control had 10 mice, and indomethacin had 5 mice. Arachidonic Acid (0.5 mg in 20 μl of acetone:ethanol/1:1) was applied topically to the anterior and posterior surfaces of the right ear of each mouse. Test substances and vehicle, as listed in Table 4 were similarly applied 30 min before and 15 min after arachidonic acid application. The thickness of the right ear and the left ear was measured and the difference calculated as an indication of the inflammation in the right ear. Ear swelling was measured by a Dyer model micrometer gauge at 60 and 90 minutes after arachidonic acid application as an index of inflammation. Percent inhibition was calculated according to the formula: Ic−It/Ic×100, where Ic and It refers to increase of ear thickness (mm) in control and treated mice, respectively. ANOVA and Dunnett's test were employed to ascertain significant difference between vehicle control and treated groups. Significance is set at P<0.05 level.

[2] = test system: arachidonic acid induced ear swelling; assay: Arachidonic acid induced ear swelling model in mice (oral administration); assay type: in vivo, mice (male ICR derived); settings: for % Inhibition (ear swelling): Table 8, oral gavage, test compound 30 mg/kg 1 hour before, dexamethasone 0.3 mg/kg 3 hour before arachidonic acid, measured at 90 minutes
Description: 3-[(4-Methylphenyl)sulfonyl]propionitrile was suspended in vehicle (1% Tween 80 in water) to 3 mg/mL. The test compound, dexamethasone (positive control in vehicle), and vehicle were orally administered to mice and evaluated for anti-inflammatory activity in the topical arachidonic acid induced ear swelling model in mice.
Male ICR derived mice weighing 22±2 g were used in this experiment. 10 mice were used for each group (active compound, positive control, and vehicle). All animals were maintained in a controlled temperature (22-24° C.) and humidity (60%-70%) environment with 12-hour light/dark cycles for at least one week prior to use.
Arachidonic acid (0.5 mg in 20 μL acetone) was applied topically onto the anterior and posterior surfaces of the right ear of test animals to induce inflammation. Active compound in vehicle (10 mL/kg) and vehicle (10 mL/kg, […]) was orally administered by gavage 1 hour before arachidonic acid, whereas dexamethasone was orally administered by gavage 3 hour before arachidonic acid challenge. At 60 minutes and 90 minutes after arachidonic acid induction of ear edema, the thickness of the right ear and the left ear was measured and the difference calculated as an indication of the inflammation in the right ear.

[3] = Table 7, test compounds 375 mM, indomethacin 14 mM
[4] = Table 6, test compounds 375 mM, indomethacin 14 mM (0.5% w/v)

Compound | % Inhibition (ear swelling) [1, 3] | % Inhibition (ear swelling) [1, 4] | further results
N#CCCS(=O)(=O)c1ccc(Cl)c(Cl)c1 [3-(3,4-dichlorophenyl)sulfonylpropionitrile] | 28% | – | melting point: 137.7 to 140.2 °C
COc1ccc(S(=O)(=O)CCC#N)cc1 [3-(4-methoxyphenyl)sulfonylpropionitrile] | 23% | – | –
N#CCCS(=O)(=O)c1ccc2ccccc2c1 [3-(naphthalene-2-sulfonyl)propionitrile] | – | 25% | –
N#CCCS(=O)(=O)c1ccccc1 [3-(phenylsulfonyl)propionitrile] | – | 36% | –
N#CCCS(=O)(=O)c1ccc(Cl)cc1 [3-[(4-chlorophenyl)sulfonyl]propionitrile] | – | 20% | –
Cc1ccc(S(=O)(=O)CCC#N)cc1 [3-[(4-methylphenyl)sulfonyl]propionitrile] | – | 44% | % Inhibition (ear swelling) [2]: 16%; Inhibition in arachidonic acid induced ear swelling (in words) ([2]; oral administration, at 90 minutes): significant inhibition
C[C@@H]1C[C@H]2[C@@H]3CCC4=CC(=O)C=C[C@]4(C)[C@@]3(F)[C@@H](O)C[C@]2(C)[C@@]1(O)C(=O)CO [Dexamethasone, reference compound] | – | – | % Inhibition (ear swelling) [2]: 36%
COc1ccc2c(c1)c(CC(=O)O)c(C)n2C(=O)c1ccc(Cl)cc1 [Indomethacin, reference compound] | 58% | 57% | –

— patent US9889111B2, “Pharmaceutical composition comprising omega-(arylsulfonyl)alkylnitrile” (OLATEC THERAPEUTICS LLC, priority 2012, dated 2018)
